Assay results taken from patent US4076659A, “L-Val^10 -somatostatin and intermediates thereto” (Eli Lilly and Company, priority 1976, dated 1978).
Bridge positions count the residues as written; N and C are the ends. Peptide text beside a SMILES is read from it.

System: release of growth hormone
Test: Inhibition of growth hormone release in sodium pentobarbitol-stimulated rats (modified Brazeau method)
Format: in vivo, mature male Spraque-Dawley rats
Conditions: subcutaneously, sodium pentobarbitol-stimulated GH secretion, vs saline control group
Experimental: The product from Example 4 was tested for its activity in inhibiting the release of growth hormone. The procedure which was employed is carried out using mature male Spraque-Dawley rats (Laboratory Supply Company, Indianapolis, Indiana). The test is a modification of the method of P. Brazeau, W. Vale, and R. Guilleman, Endocrinology, 94 184 (1974). In this assay, five groups of eight rats each were employed. First, sodium pentobarbitol was administered to all 40 rats to stimulate growth hormone secretion. One of the groups of eight rats is the control group and received only saline. Two of the groups received somatostatin, one at 2 μg./rat, subcutaneously, and the other at 50 μg./rat, subcutaneously. The other two groups received L-Val^10 -somatostatin, one at 2 μg./rat, subcutaneously and the other at 50 μg./rat, subcutaneously. The degree of inhibition of serum growth hormone concentration then was determined with respect to the control group, and the relative activities of L-Val^10 -somatostatin and somatostatin itself were compared.

`CC(C)[C@@H]1NC(=O)[C@H](CCCCN)NC(=O)[C@H](Cc2c[nH]c3ccccc23)NC(=O)[C@H](Cc2ccccc2)NC(=O)[C@H](Cc2ccccc2)NC(=O)[C@H](CC(N)=O)NC(=O)[C@H](CCCCN)NC(=O)[C@@H](NC(=O)CNC(=O)[C@H](C)N)CSSC[C@@H](C(=O)O)NC(=O)[C@H](CO)NC(=O)[C@H]([C@@H](C)O)NC(=O)[C@H](Cc2ccccc2)NC1=O` [L-Val^10 -somatostatin] (H-AGCKNFFWKVFTSC-OH; disulfide 3-14) was tested, and the “diminished serum growth hormone concentration over control” value (2 μg./rat) was 49% and the “diminished serum growth hormone concentration over control (inhibition)” value (50 μg./rat) was 72%.
